Test results from EP4691482A1, “LONG-ACTING CALCITONIN ANALOG” (Chengdu Aoda Biotechnology Co., Ltd., priority 2023, dated 2024).

Molecular target: T1, calcitonin receptors (CTR) (Homo sapiens, UniProt P30988)
T1 construct: expressed in transfected cells; host or cells: cAMP Hunter HEK293-CT-R Gs cell line (HEK293, stably transfected)
T1 sequence (P30988 25-474): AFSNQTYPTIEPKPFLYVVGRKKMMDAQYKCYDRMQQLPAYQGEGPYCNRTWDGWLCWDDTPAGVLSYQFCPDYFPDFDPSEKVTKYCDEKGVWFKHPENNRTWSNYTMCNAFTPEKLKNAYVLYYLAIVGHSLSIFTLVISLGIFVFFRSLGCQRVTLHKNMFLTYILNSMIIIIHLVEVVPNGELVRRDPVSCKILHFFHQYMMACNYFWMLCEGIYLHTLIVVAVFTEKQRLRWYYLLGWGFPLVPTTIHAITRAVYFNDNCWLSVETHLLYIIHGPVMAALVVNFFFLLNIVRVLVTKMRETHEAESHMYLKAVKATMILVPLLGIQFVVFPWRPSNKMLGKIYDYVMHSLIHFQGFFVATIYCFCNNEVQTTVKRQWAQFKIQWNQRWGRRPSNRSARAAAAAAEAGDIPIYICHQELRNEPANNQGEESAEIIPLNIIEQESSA
Assay: cAMP determination (HTRF, cAMP Dynamic 2 Kit) in cAMP Hunter HEK293-CT-R Gs cell line
Type: cell-based
Conditions: HEK293 cell line stably expressing CT-R; intracellular cAMP, HTRF
From the text: Upon activation by a ligand, Gas-coupled GPCRs can upregulate intracellular cAMP level, and cAMP, as a second messenger, can mediate a series of cellular responses. The cAMP Hunter HEK293-CT-R Gs cell line, which overexpresses Gas-coupled calcitonin receptors (CTR), was used. The binding of calcitonin (or an analog thereof) to the overexpressed CTR upregulates intracellular cAMP level. The amount of intracellular cAMP produced after activation by the calcitonin (or an analog thereof) was detected using a cAMP Dynamic 2 Kit to evaluate the biological activity of the calcitonin (or an analog thereof). HEK293 cell line stably expressing CT-R was used. Stably transfected cells were stimulated with various concentrations of agonists. The time-resolved fluorescence resonance energy signal from the cells after stimulation with different doses was measured using HTRF technology, from which the biological activity of the agonist was subsequently calculated.

EC50	SMILES
3.9 pM	CC(C)C[C@H](NC(=O)[C@H](CCCCN)NC(=O)CNC(=O)[C@H](CC(C)C)NC(=O)[C@@H](NC(=O)[C@@H]1CSSC[C@H](N)C(=O)N[C@@H](CO)C(=O)N[C@@H](CC(N)=O)C(=O)N[C@@H](CC(C)C)C(=O)N[C@@H](CO)C(=O)N[C@@H]([C@@H](C)O)C(=O)N1)C(C)C)C(=O)N[C@@H](CO)C(=O)N[C@@H](CCC(N)=O)C(=O)N[C@@H](CCC(=O)O)C(=O)N[C@@H](CC(C)C)C(=O)N[C@@H](Cc1c[nH]cn1)C(=O)N[C@@H](CCCCNC(=O)CNC(=O)CNC(=O)CNC(=O)CC[C@H](NC(=O)CCCCCCCCCCCCCCCCCCC(=O)O)C(=O)O)C(=O)N[C@@H](CC(C)C)C(=O)N[C@@H](CCC(N)=O)C(=O)N[C@H](C(=O)N[C@@H](Cc1ccc(O)cc1)C(=O)N1CCC[C@H]1C(=O)N[C@@H](CCCNC(=N)N)C(=O)N[C@H](C(=O)N[C@@H](CC(N)=O)C(=O)N[C@H](C(=O)NCC(=O)N[C@@H](CO)C(=O)NCC(=O)N[C@H](C(=O)N1CCC[C@H]1C(N)=O)[C@@H](C)O)[C@@H](C)O)[C@@H](C)O)[C@@H](C)O [Compound 12]
6.5 pM	CC(C)C[C@H](NC(=O)[C@H](CCCCN)NC(=O)CNC(=O)[C@H](CC(C)C)NC(=O)[C@@H](NC(=O)[C@@H]1CSSC[C@H](N)C(=O)N[C@@H](CO)C(=O)N[C@@H](CC(N)=O)C(=O)N[C@@H](CC(C)C)C(=O)N[C@@H](CO)C(=O)N[C@@H]([C@@H](C)O)C(=O)N1)C(C)C)C(=O)N[C@@H](CO)C(=O)N[C@@H](CCC(N)=O)C(=O)N[C@@H](CCC(=O)O)C(=O)N[C@@H](CC(C)C)C(=O)N[C@@H](Cc1c[nH]cn1)C(=O)N[C@@H](CCCCNC(=O)CNC(=O)CNC(=O)CNC(=O)CNC(=O)CNC(=O)CNC(=O)CC[C@H](NC(=O)CCCCCCCCCCCCCCCCCCC(=O)O)C(=O)O)C(=O)N[C@@H](CC(C)C)C(=O)N[C@@H](CCC(N)=O)C(=O)N[C@H](C(=O)N[C@@H](Cc1ccc(O)cc1)C(=O)N1CCC[C@H]1C(=O)N[C@@H](CCCNC(=N)N)C(=O)N[C@H](C(=O)N[C@@H](CC(N)=O)C(=O)N[C@H](C(=O)NCC(=O)N[C@@H](CO)C(=O)NCC(=O)N[C@H](C(=O)N1CCC[C@H]1C(N)=O)[C@@H](C)O)[C@@H](C)O)[C@@H](C)O)[C@@H](C)O [Compound 15]
3.1 pM	CC(C)C[C@H](NC(=O)[C@H](CCCCN)NC(=O)CNC(=O)[C@H](CC(C)C)NC(=O)[C@@H](NC(=O)[C@@H]1CSSC[C@H](N)C(=O)N[C@@H](CO)C(=O)N[C@@H](CC(N)=O)C(=O)N[C@@H](CC(C)C)C(=O)N[C@@H](CO)C(=O)N[C@@H]([C@@H](C)O)C(=O)N1)C(C)C)C(=O)N[C@@H](CO)C(=O)N[C@@H](CCC(N)=O)C(=O)N[C@@H](CCC(=O)O)C(=O)N[C@@H](CC(C)C)C(=O)N[C@@H](Cc1c[nH]cn1)C(=O)N[C@@H](CCCCNC(=O)COCCOCCNC(=O)COCCOCCNC(=O)COCCOCCNC(=O)CC[C@H](NC(=O)CCCCCCCCCCCCCCCCCCC(=O)O)C(=O)O)C(=O)N[C@@H](CC(C)C)C(=O)N[C@@H](CCC(N)=O)C(=O)N[C@H](C(=O)N[C@@H](Cc1ccc(O)cc1)C(=O)N1CCC[C@H]1C(=O)N[C@@H](CCCNC(=N)N)C(=O)N[C@H](C(=O)N[C@@H](CC(N)=O)C(=O)N[C@H](C(=O)NCC(=O)N[C@@H](CO)C(=O)NCC(=O)N[C@H](C(=O)N1CCC[C@H]1C(N)=O)[C@@H](C)O)[C@@H](C)O)[C@@H](C)O)[C@@H](C)O [Compound 17, Cys-Ser-Asn-Leu-Ser-Thr-Cys-Val-Leu-Gly-Lys-Leu-Ser-Gln-Glu-Leu-His-Lys(AEEA-AEEA-AEEA-γGlu-eicosanedioic acid)-Leu-Gln-Thr-T yr-Pro-Arg-Thr-Asn-Thr-Gly-Ser-Gly-Thr-Pro-NH2]
3.1 pM	CC(C)C[C@H](NC(=O)[C@H](CCCCN)NC(=O)CNC(=O)[C@H](CC(C)C)NC(=O)[C@@H](NC(=O)[C@@H]1CSSC[C@H](N)C(=O)N[C@@H](CO)C(=O)N[C@@H](CC(N)=O)C(=O)N[C@@H](CC(C)C)C(=O)N[C@@H](CO)C(=O)N[C@@H]([C@@H](C)O)C(=O)N1)C(C)C)C(=O)N[C@@H](CO)C(=O)N[C@@H](CCC(N)=O)C(=O)N[C@@H](CCC(=O)O)C(=O)N[C@@H](CC(C)C)C(=O)N[C@@H](Cc1c[nH]cn1)C(=O)N[C@@H](CCCCNC(=O)CNC(=O)CNC(=O)CNC(=O)CNC(=O)CNC(=O)CC[C@H](NC(=O)CCCCCCCCCCCCCCCCCCC(=O)O)C(=O)O)C(=O)N[C@@H](CC(C)C)C(=O)N[C@@H](CCC(N)=O)C(=O)N[C@H](C(=O)N[C@@H](Cc1ccc(O)cc1)C(=O)N1CCC[C@H]1C(=O)N[C@@H](CCCNC(=N)N)C(=O)N[C@H](C(=O)N[C@@H](CC(N)=O)C(=O)N[C@H](C(=O)NCC(=O)N[C@@H](CO)C(=O)NCC(=O)N[C@H](C(=O)N1CCC[C@H]1C(N)=O)[C@@H](C)O)[C@@H](C)O)[C@@H](C)O)[C@@H](C)O [Compound 14]
2.9 pM	CC(C)C[C@H](NC(=O)[C@H](CCCCN)NC(=O)CNC(=O)[C@H](CC(C)C)NC(=O)[C@@H](NC(=O)[C@@H]1CSSC[C@H](N)C(=O)N[C@@H](CO)C(=O)N[C@@H](CC(N)=O)C(=O)N[C@@H](CC(C)C)C(=O)N[C@@H](CO)C(=O)N[C@@H]([C@@H](C)O)C(=O)N1)C(C)C)C(=O)N[C@@H](CO)C(=O)N[C@@H](CCC(N)=O)C(=O)N[C@@H](CCC(=O)O)C(=O)N[C@@H](CC(C)C)C(=O)N[C@@H](Cc1c[nH]cn1)C(=O)N[C@@H](CCCCNC(=O)COCCOCCNC(=O)COCCOCCNC(=O)CC[C@H](NC(=O)CCCCCCCCCCCCCCCCCCC(=O)O)C(=O)O)C(=O)N[C@@H](CC(C)C)C(=O)N[C@@H](CCC(N)=O)C(=O)N[C@H](C(=O)N[C@@H](Cc1ccc(O)cc1)C(=O)N1CCC[C@H]1C(=O)N[C@@H](CCCNC(=N)N)C(=O)N[C@H](C(=O)N[C@@H](CC(N)=O)C(=O)N[C@H](C(=O)NCC(=O)N[C@@H](CO)C(=O)NCC(=O)N[C@H](C(=O)N1CCC[C@H]1C(N)=O)[C@@H](C)O)[C@@H](C)O)[C@@H](C)O)[C@@H](C)O [Compound 16, Cys-Ser-Asn-Leu-Ser-Thr-Cys-Val-Leu-Gly-Lys-Leu-Ser-Gln-Glu-Leu-His-Lys(AEEA-AEEA-γGlu-eicosanedioic acid)-Leu-Gln-Thr-Tyr-Pro-Arg-Thr-Asn-Thr-Gly-Ser-Gly-Thr-Pro-NH2]
4.9 pM	CC(C)C[C@H](NC(=O)[C@H](CCCCN)NC(=O)CNC(=O)[C@H](CC(C)C)NC(=O)[C@@H](NC(=O)[C@@H]1CSSC[C@H](N)C(=O)N[C@@H](CO)C(=O)N[C@@H](CC(N)=O)C(=O)N[C@@H](CC(C)C)C(=O)N[C@@H](CO)C(=O)N[C@@H]([C@@H](C)O)C(=O)N1)C(C)C)C(=O)N[C@@H](CO)C(=O)N[C@@H](CCC(N)=O)C(=O)N[C@@H](CCC(=O)O)C(=O)N[C@@H](CC(C)C)C(=O)N[C@@H](Cc1c[nH]cn1)C(=O)N[C@@H](CCCCNC(=O)CNC(=O)CC[C@H](NC(=O)CCCCCCCCCCCCCCCCCCC(=O)O)C(=O)O)C(=O)N[C@@H](CC(C)C)C(=O)N[C@@H](CCC(N)=O)C(=O)N[C@H](C(=O)N[C@@H](Cc1ccc(O)cc1)C(=O)N1CCC[C@H]1C(=O)N[C@@H](CCCNC(=N)N)C(=O)N[C@H](C(=O)N[C@@H](CC(N)=O)C(=O)N[C@H](C(=O)NCC(=O)N[C@@H](CO)C(=O)NCC(=O)N[C@H](C(=O)N1CCC[C@H]1C(N)=O)[C@@H](C)O)[C@@H](C)O)[C@@H](C)O)[C@@H](C)O [Compound 10, Cys-Ser-Asn-Leu-Ser-Thr-Cys-Val-Leu-Gly-Lys-Leu-Ser-Gln-Glu-Leu-His-Lys(Gly-yGlu-eicosanedioic acid)-Leu-Gln-Thr-Tyr-Pro-Arg-Thr-Asn-Thr-Gly-Ser-Gly-Thr-Pro-NH2]

Same assay, conditions: relative to Salmon Calcitonin = 100.0; HEK293 CT-R cAMP

Relative Activity%	SMILES
296.9%	CC(C)C[C@H](NC(=O)[C@H](CCCCN)NC(=O)CNC(=O)[C@H](CC(C)C)NC(=O)[C@@H](NC(=O)[C@@H]1CSSC[C@H](N)C(=O)N[C@@H](CO)C(=O)N[C@@H](CC(N)=O)C(=O)N[C@@H](CC(C)C)C(=O)N[C@@H](CO)C(=O)N[C@@H]([C@@H](C)O)C(=O)N1)C(C)C)C(=O)N[C@@H](CO)C(=O)N[C@@H](CCC(N)=O)C(=O)N[C@@H](CCC(=O)O)C(=O)N[C@@H](CC(C)C)C(=O)N[C@@H](Cc1c[nH]cn1)C(=O)N[C@@H](CCCCNC(=O)COCCOCCOCCNC(=O)CC[C@H](NC(=O)CCCCCCCCCCCCCCCCCCCCC(=O)O)C(=O)O)C(=O)N[C@@H](CC(C)C)C(=O)N[C@@H](CCC(N)=O)C(=O)N[C@H](C(=O)N[C@@H](Cc1ccc(O)cc1)C(=O)N1CCC[C@H]1C(=O)N[C@@H](CCCNC(=N)N)C(=O)N[C@H](C(=O)N[C@@H](CC(N)=O)C(=O)N[C@H](C(=O)NCC(=O)N[C@@H](CO)C(=O)NCC(=O)N[C@H](C(=O)N1CCC[C@H]1C(N)=O)[C@@H](C)O)[C@@H](C)O)[C@@H](C)O)[C@@H](C)O [Compound 20, Cys-Ser-Asn-Leu-Ser-Thr-Cys-Val-Leu-Gly-Lys-Leu-Ser-Gln-Glu-Leu-His-Lys(PEG3CH2CO-γGlu-docosanedioic acid)-Leu-Gln-Thr-Tyr-Pro-Arg-Thr-Asn-Thr-Gly-Ser-Gly-Thr-Pro-NH2]
